Values quoted from earlier work, collected in US20240251900A1, “PATCH FOR TARGETED DELIVERY OF HAIR COMPOSITION AND METHOD FOR APPLYING SAME” (Better Not Younger Corporation, priority 2022, published 2024).

Test system: hair follicle
Conditions: Capixyl techsheet page 38

In the case of acetyl tetrapeptide-3, the “stimulation of hair growth versus market reference Minoxidil” value is listed as “stimulate hair growth better than the market reference, Minoxidil”.
